# “Also recorded” adds a separate entry of the source.
# Assays:
# [1] = cited from earlier work
# [2] = Uptake of CMZ in zebrafish muscle during 7-day water exposure; assay type: in vivo, zebrafish (Danio rerio); conditions: male, other: water exposure (waterborne); for concentration at 7 d: muscle; for Kp at 7 d: muscle/plasma
# [3] = Measured fish plasma concentration; assay type: in vivo, zebrafish (Danio rerio); conditions: for Measured FPC/Predicted FPC / Measured FPC: 7-day exposure; for Measured FPC: mean ± SD, n = 3
# [4] = test system: acetylcholine (ACh); assay: ACh level in whole zebrafish by ELISA after 7-day CMZ exposure; assay type: in vivo; conditions: 7-day exposure 1, 10, 100, 1000 μg/L vs control group
# [5] = test system: glutamic acid (Glu); assay: Glu level in whole zebrafish by ELISA after 7-day CMZ exposure; assay type: in vivo; conditions: seven days of CMZ exposure vs control group (p<0.05; 1000 μg/L p<0.01)
# [6] = test system: gamma-aminobutyric acid (GABA); assay: GABA level in whole zebrafish by ELISA after 7-day CMZ exposure; assay type: in vivo; conditions: seven days of CMZ exposure vs control group (p<0.05; 1000 μg/L p<0.01)
# [7] = test system: acetylcholinesterase (AChE); assay: AChE in whole zebrafish by ELISA after 7-day CMZ exposure; assay type: in vivo; conditions: 7-day exposure 1, 10, 100, 1000 μg/L vs control group
# [8] = test system: abat; assay: Real-time PCR of neurotransmitter-related gene abat; assay type: in vivo, zebrafish; conditions: seven days, four concentrations (1, 10, 100, 1000 μg/L) vs control, p<0.05
# [9] = test system: zebrafish larvae; assay: Zebrafish larval motor behavior; assay type: in vivo; conditions: 7 days exposure
# [10] = human; cited from earlier work
# [11] = test system: AChE; conditions: muscle (10000 μg/L) and head (10 and 10000 μg/L), exposure of 63 days, p<0.05; cited from earlier work
# [12] = test system: GABA; conditions: zebrafish embryos, CMZ 1, 10, 100 μg/L; cited from earlier work
# [13] = test system: Glu; conditions: zebrafish embryos, CMZ 1, 10, 100 μg/L; cited from earlier work
# [14] = test system: zebrafish embryos and larvae; conditions: 1 μg/L; cited from earlier work
# [15] = test system: spermatozoa; conditions: 2.0 and 20 mg/L; cited from earlier work
# [16] = carp, Coote natural Marsh in Canada; cited from earlier work
# [17] = test system: fish; conditions: cited from earlier work
# [18] = EEC 3, 10, 30 μg/L; cited from earlier work
smiles,measurement,setting,value
"CCC(=O)OCC(=O)[C@@]1(OC(=O)CC)[C@@H](C)C[C@H]2[C@@H]3CCC4=CC(=O)C=C[C@]4(C)[C@@]3(Cl)[C@@H](O)C[C@@]21C [Beclomethasone Dipropionate, beclomethasone dipropionate]",log Kow,[1],3.69
"NC(=O)N1c2ccccc2C=Cc2ccccc21 [CMZ, Carbamazepine]",concentration at 7 d,[2]; 10 μg/L,35.4 ± 7.9 ng/g
same,concentration at 7 d,[2]; 100 μg/L,420 ± 77.5 ng/g
same,concentration at 7 d,[2]; 1000 μg/L,2330 ± 127 ng/g
same,Kp at 7 d,[2]; 10 μg/L,0.26 ± 0.06
same,Kp at 7 d,[2]; 100 μg/L,0.14 ± 0.03
same,Kp at 7 d,[2]; 1000 μg/L,0.54 ± 0.03
same,Measured FPC/Predicted FPC,[3]; external 1 μg/L,1.84 ± 0.27
same,Measured FPC,[3]; external 1 μg/L (nominal),25.47 ± 3.78 µg/L
same,Measured FPC,[3]; external 10 μg/L (nominal),1311.10 ± 80.26 µg/L
same,Measured FPC/Predicted FPC,[3]; external 100 μg/L,2.14 ± 0.08
same,Measured FPC,[3]; external 100 μg/L (nominal),2953.30 ± 109.20 µg/L
same,Measured FPC/Predicted FPC,[3]; external 1000 μg/L,0.31 ± 0.01
same,measured FPC value as share of the predicted value,[3]; external 1000 μg/L,31.05%
same,concentration at 7 d,"[3]; male, AB, zebrafish, plasma, other: water exposure (waterborne), corresponding FPCs, low ambient exposure 1 and 10 μg/L",25.5 to 1310 ng/mL
same,ER values,"[3]; ratio of HTPC and FSSPC, Equation 3, all exposure concentrations",< 1000
same,level of ACh,[4],gradually decreased; also recorded: significantly decreased
same,Glu level,[5],appreciably increased
same,GABA level,[6],appreciably increased
same,level of AChE,[7],gradually decreased; also recorded: significantly decreased
same,expression of the abat gene,[8],significantly down-regulated
same,total movement distance of the larvae,"[9]; 1000 μg/L, p<0.05",significantly higher than that of the control group
same,total distance traveled by larvae,"[9]; 1, 10, 100 μg/L, p>0.05","slightly lower than that of the control group, but there was no significant difference"
same,Dlipw,"[1]; pH 7.4, ref http://www.chemspider.com/Chemical",2.92
same,maximum HTPC,[10],12 mg/L
same,AChE activity,[11],considerably increased
same,GABA concentration,[12],increased
same,Glu concentration,[13],reduced
same,movement and rest percentage of zebrafish embryos and larvae,[14],significantly affected
same,percentage of spermatozoa motile and velocity,[15],significantly reduce
C#C[C@]1(O)CC[C@H]2[C@@H]3CCC4=CC(=O)CC[C@@H]4[C@H]3CC[C@@]21CC [Levonorgestrel],log Kow,[1],3.72
"CCN(CC)C(=O)c1cccc(C)c1 [N,N-diethyl-m-toluamide]",measured BCFs relative to the predicted BCFs,[16],≤ 3 times
O=C1Nc2ccc(Cl)cc2C(c2ccccc2)=NC1O (stereo not shown) [Oxazepam],behavior in the novel tank diving test,[17]; fish exposed to 4.7 μg/L,statistically significant behavioral effect
CN[C@H]1CC[C@@H](c2ccc(Cl)c(Cl)c2)c2ccccc21 [Sertraline],Predicted FPC vs Measured FPC,[18],very close
same,shelter-seeking behavior,[17]; when the FPC exceeded the human therapeutic threshold,statistically significant reductions
O=C1NC(=O)C(c2ccccc2)(c2ccccc2)N1 [phenytoin],measured BCFs relative to the predicted BCFs,[16],≤ 3 times
O=C(Nc1ccc(Cl)cc1)Nc1ccc(Cl)c(Cl)c1 [triclocarban],measured BCFs relative to the predicted BCFs,[16],≤ 3 times

# From article PMC10494213 (iScience, 2023)
